Results: patent publication US8133729B2, “Biomimetic urothelium” (The University of York, priority 2002, dated 2012)
“Also recorded” adds a separate entry of the source.

Tests used:
[1] = target: T1, amiloride-sensitive sodium channels (Homo sapiens, UniProt P37088+P51168+P51170); test: Polarised sodium ion channel distribution: short circuit current and transepithelial potential difference on amiloride exposure; assay type: cell-based
T1 construct: The exposure of the apical surface of the urothelial tissue to amiloride reduced both the voltage and the current; endogenous in cells; host or cells: in vitro cultured, differentiated human urothelial cell sheet
T1 sequence (P51170 whole entry): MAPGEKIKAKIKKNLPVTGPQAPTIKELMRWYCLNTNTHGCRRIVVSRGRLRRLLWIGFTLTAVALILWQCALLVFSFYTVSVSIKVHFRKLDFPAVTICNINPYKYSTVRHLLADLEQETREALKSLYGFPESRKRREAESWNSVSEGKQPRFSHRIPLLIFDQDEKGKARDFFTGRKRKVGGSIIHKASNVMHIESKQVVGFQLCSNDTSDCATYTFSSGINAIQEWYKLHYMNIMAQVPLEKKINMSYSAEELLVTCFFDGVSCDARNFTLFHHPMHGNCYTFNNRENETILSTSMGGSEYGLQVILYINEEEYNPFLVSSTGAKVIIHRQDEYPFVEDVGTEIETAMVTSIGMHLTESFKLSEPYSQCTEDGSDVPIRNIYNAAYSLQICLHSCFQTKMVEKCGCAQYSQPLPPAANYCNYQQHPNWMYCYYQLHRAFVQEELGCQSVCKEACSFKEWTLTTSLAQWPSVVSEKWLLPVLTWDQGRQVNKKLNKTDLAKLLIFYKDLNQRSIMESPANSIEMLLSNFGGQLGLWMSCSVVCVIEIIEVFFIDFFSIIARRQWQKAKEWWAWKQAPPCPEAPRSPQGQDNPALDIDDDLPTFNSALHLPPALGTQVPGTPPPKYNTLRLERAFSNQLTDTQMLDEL
T1 sequence (P37088 whole entry): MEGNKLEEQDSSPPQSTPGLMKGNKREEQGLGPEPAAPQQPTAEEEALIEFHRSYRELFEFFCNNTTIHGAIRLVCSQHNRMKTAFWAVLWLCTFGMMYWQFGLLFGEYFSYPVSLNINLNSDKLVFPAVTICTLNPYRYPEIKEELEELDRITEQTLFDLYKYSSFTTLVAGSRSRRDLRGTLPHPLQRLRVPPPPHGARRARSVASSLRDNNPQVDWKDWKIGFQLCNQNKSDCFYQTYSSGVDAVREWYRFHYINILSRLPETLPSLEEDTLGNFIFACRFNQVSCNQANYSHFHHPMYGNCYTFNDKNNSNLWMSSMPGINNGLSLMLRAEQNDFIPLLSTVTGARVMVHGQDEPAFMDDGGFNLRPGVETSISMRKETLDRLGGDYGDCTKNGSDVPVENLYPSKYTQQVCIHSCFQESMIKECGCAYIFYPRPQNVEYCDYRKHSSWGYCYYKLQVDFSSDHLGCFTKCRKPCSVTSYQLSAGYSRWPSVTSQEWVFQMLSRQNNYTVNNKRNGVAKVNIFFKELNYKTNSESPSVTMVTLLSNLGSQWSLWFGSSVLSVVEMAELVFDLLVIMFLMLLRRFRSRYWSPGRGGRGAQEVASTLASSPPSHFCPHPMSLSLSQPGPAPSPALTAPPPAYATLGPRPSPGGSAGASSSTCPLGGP
T1 sequence (P51168 whole entry): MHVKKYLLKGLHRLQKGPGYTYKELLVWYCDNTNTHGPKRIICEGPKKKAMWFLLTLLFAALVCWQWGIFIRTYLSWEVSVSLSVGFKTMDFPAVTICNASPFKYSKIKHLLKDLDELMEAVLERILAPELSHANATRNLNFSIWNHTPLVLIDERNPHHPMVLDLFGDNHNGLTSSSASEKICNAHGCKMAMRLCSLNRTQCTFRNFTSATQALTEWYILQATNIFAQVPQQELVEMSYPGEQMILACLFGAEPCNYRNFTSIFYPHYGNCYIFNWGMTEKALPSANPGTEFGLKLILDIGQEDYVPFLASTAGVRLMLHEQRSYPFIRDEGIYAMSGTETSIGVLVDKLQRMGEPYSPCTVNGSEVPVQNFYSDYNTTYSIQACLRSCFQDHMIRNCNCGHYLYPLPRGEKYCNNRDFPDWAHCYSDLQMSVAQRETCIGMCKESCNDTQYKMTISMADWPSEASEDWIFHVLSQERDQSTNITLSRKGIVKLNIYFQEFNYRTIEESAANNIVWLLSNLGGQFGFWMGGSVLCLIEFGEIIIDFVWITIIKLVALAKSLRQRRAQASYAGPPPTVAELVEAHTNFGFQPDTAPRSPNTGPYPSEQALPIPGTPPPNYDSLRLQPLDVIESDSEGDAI
Method: (§1) Polarised Sodium Ion Channel Distribution. In order to determine the presence and correct spatial location of sodium ion channels, short circuit current and transepithelial potential difference were measured under voltage and current clamped conditions respectively.

Na^+—K^+ ATPase = test: Short circuit current and transepithelial potential difference on ouabain exposure; assay type: cell-based, human
Method: as §1

[2] = exposure of basal surface of in vitro cultivated urothelium
[3] = exposure of apical surface of in vitro cultivated urothelium

SMILES	effect on transepithelial potential difference (voltage) ([1]; exposure of apical surface of in vitro cultivated urothelium, current clamped)	effect on short circuit current ([1]; exposure of apical surface of in vitro cultivated urothelium, voltage clamped)	effect on short circuit current [1, 2]	effect on transepithelial potential difference (voltage) [1, 2]	effect on short circuit current (Na^+—K^+ ATPase; [3])	effect on transepithelial potential difference (voltage) (Na^+—K^+ ATPase; [3])	effect on short circuit current (Na^+—K^+ ATPase; [2])	effect on transepithelial potential difference (voltage) (Na^+—K^+ ATPase; [2])
N=C(N)NC(=O)c1nc(Cl)c(N)nc1N [amiloride]	reduced both the voltage and the current in a dose-dependent manner	dose-responsive decrease in short circuit current; also recorded: reduced both the voltage and the current in a dose-dependent manner	did not affect either the voltage or the current	did not affect either the voltage or the current	–	–	–	–
C[C@@H]1O[C@@H](O[C@H]2C[C@@H](O)[C@]3(CO)[C@H]4[C@H](O)C[C@]5(C)[C@@H](C6=CC(=O)OC6)CC[C@]5(O)[C@@H]4CC[C@]3(O)C2)[C@H](O)[C@H](O)[C@H]1O [ouabain]	–	–	–	–	only a minor effect on the measured voltage and current	only a minor effect on the measured voltage and current	marked reduction of both voltage and current	marked reduction of both voltage and current
